Source: publication PMC11764660, “Self-Assembled Peptide Hydrogels PPI45 and PPI47: Novel Drug Candidates for Staphylococcus aureus Infection Treatment” (Gels, 2025)
Converted amounts (≈) assume the structure as drawn. Positions of bridges follow the written chain, without caps; N, C: chain ends. Residues, ends and D or L forms follow the SMILES beside them.

What was measured:
S. aureus ATCC 25923 [1] = experiment: MIC assay; assay type: cell-based, Staphylococcus aureus; conditions: 96-well plate, 10^5 CFU/mL, 37 °C, 12 to 18 h
Method: (§1) A series of concentration gradients of peptide solution (10, 20, 40, 80, 160, 320, 640, and 1280 µg/mL) and the bacterial suspension (10^5 CFU/mL) were added to a 96-well plate at a volume ratio of 10 µL: 90 µL. Subsequently, the plate was incubated at 37 °C for 12 to 18 h. The concentration in the final well of the 96-well plate where no bacterial growth is evident corresponds to the MIC value.

S. aureus CVCC 546 [2] = experiment: MIC assay; assay type: cell-based, Staphylococcus aureus; conditions: 96-well plate, 10^5 CFU/mL, 37 °C, 12 to 18 h
Method: as §1

[3] = tested on: S. epidermidis ATCC 35984; experiment: MIC assay; assay type: cell-based, Staphylococcus epidermidis; conditions: 96-well plate, 10^5 CFU/mL, 37 °C, 12 to 18 h
Method: as §1

[4] = tested on: Escherichia coli ATCC 25922; experiment: MIC assay; assay type: cell-based; conditions: 96-well plate, 10^5 CFU/mL, 37 °C, 12 to 18 h
Method: as §1

[5] = tested on: Pseudomonas aeruginosa ATCC 10104; experiment: MIC assay; assay type: cell-based; conditions: 96-well plate, 10^5 CFU/mL, 37 °C, 12 to 18 h
Method: as §1

[6] = tested on: Staphylococcus aureus ATCC 43300; experiment: MIC assay; assay type: cell-based; conditions: 96-well plate, 10^5 CFU/mL, 37 °C, 12 to 18 h
Method: as §1

[7] = tested on: Staphylococcus epidermidis ATCC 12228; experiment: MIC assay; assay type: cell-based; conditions: 96-well plate, 10^5 CFU/mL, 37 °C, 12 to 18 h
Method: as §1

[8] = tested on: Streptococcus agalactiae ATCC 13813; experiment: MIC assay; assay type: cell-based; conditions: 96-well plate, 10^5 CFU/mL, 37 °C, 12 to 18 h
Method: as §1

[9] = tested on: Streptococcus dysgalactiae CVCC 3938; experiment: MIC assay; assay type: cell-based; conditions: 96-well plate, 10^5 CFU/mL, 37 °C, 12 to 18 h
Method: as §1

S. aureus ATCC 25923 [10] = experiment: MBC assay; assay type: cell-based, Staphylococcus aureus; conditions: colony counting, 99.9% criterion
Source text: (§2) Microbial cultures are quantified at concentrations surpassing the MIC to ascertain the number of viable bacterial cells. The lowest concentration at which the number of colonies is less than 99.9% at the time of initial inoculation is defined as MBC, which is capable of killing the bacteria.

S. aureus CVCC 546 [11] = experiment: MBC assay; assay type: cell-based, Staphylococcus aureus; conditions: colony counting, 99.9% criterion
Source text: as §2

[12] = tested on: S. epidermidis ATCC 35984; experiment: MBC assay; assay type: cell-based, Staphylococcus epidermidis; conditions: colony counting, 99.9% criterion
Source text: as §2

[13] = tested on: Escherichia coli ATCC 25922; experiment: MBC assay; assay type: cell-based; conditions: colony counting, 99.9% criterion
Source text: as §2

[14] = tested on: Pseudomonas aeruginosa ATCC 10104; experiment: MBC assay; assay type: cell-based; conditions: colony counting, 99.9% criterion
Source text: as §2

[15] = tested on: Staphylococcus aureus ATCC 43300; experiment: MBC assay; assay type: cell-based; conditions: colony counting at concentrations surpassing the MIC, 99.9% criterion
Source text: as §2

[16] = tested on: Staphylococcus epidermidis ATCC 12228; experiment: MBC assay; assay type: cell-based; conditions: colony counting, 99.9% criterion
Source text: as §2

[17] = tested on: Streptococcus agalactiae ATCC 13813; experiment: MBC assay; assay type: cell-based; conditions: colony counting, 99.9% criterion
Source text: as §2

[18] = tested on: Streptococcus dysgalactiae CVCC 3938; experiment: MBC assay; assay type: cell-based; conditions: colony counting, 99.9% criterion
Source text: as §2

mouse erythrocytes = experiment: Hemolytic activity; assay type: cell-based; conditions: 1 h, 37 °C, absorbance 540 nm
Method: Equal volumes of the erythrocyte suspension and the peptide dilutions were combined and incubated for one hour at 37 °C. Subsequently, the mixture was centrifuged at 2000 rpm for 5 min, and the supernatant was transferred to a 96-well plate. The absorbance was then measured at 540 nm. Triton X-100 and physiological saline were employed as positive and negative controls, respectively. The percentage of hemolysis was calculated via the following formula:Hemolysis (%) = [(Apeptide − Asaline)/(A0.1% Triton X-100 − Asaline)] × 100%.

HaCaT cells = experiment: Cytotoxicity analysis (CCK-8); assay type: cell-based, human; conditions: 2–256 µg/mL, 24 h, CCK-8, absorbance 450 nm, six replicates
Method: HaCaT cells, at a density of 2.5 × 10^5 cells/mL, were inoculated into 96-well plates and incubated in a cell culture incubator for 24 h. Following the removal of the medium, an equal volume of peptide solution, ranging in concentration from 2 to 256 µg/mL, was added, and the cells were incubated for an additional 24 h. The medium was subsequently removed, and the wells were washed three times with saline. CCK-8 solution ([…], 100 µL per well) was then added, and the plates were incubated for 2 h. Absorbance was measured at 450 nm using a microplate reader. Saline served as the negative control, while the medium without cells was used as the blank control. Six replicates were set for each concentration. Cell survival is calculated as follows: (As − Ab)/(Ac − Ab) × 100%.
As: Absorbance value of the experimental group (medium containing cells, sample, CCK-8)
Ac: Absorbance value of the control group (medium containing cells, no sample, CCK-8)
Ab: Absorbance value of the blank group (medium without cells, no sample, CCK-8)

[19] = concentration range 20–2560 µg/mL

SMILES | MIC (S. aureus ATCC 25923 [1]) [µg/mL] | MIC (S. aureus CVCC 546 [2]) [µg/mL] | MIC [3] [µg/mL] | MIC [4] [µg/mL] | MIC [5] [µg/mL] | MIC [6] [µg/mL] | MIC [7] [µg/mL] | MIC [8] [µg/mL] | MIC [9] [µg/mL] | MBC (S. aureus ATCC 25923 [10]) [µg/mL] | MBC (S. aureus CVCC 546 [11]) [µg/mL] | MBC [12] [µg/mL] | MBC [13] [µg/mL] | MBC [14] [µg/mL] | MBC [15] [µg/mL] | MBC [16] [µg/mL] | MBC [17] [µg/mL] | MBC [18] [µg/mL] | cytotoxicity towards HaCaT cells (HaCaT cells) | hemolysis (mouse erythrocytes; [19]) | also measured
CC[C@H](C)[C@@H]1NC(=O)[C@H](CO)NC(=O)[C@H](CCCCN)NC(=O)[C@@H]2CSSC[C@@H](C(=O)N[C@@H](Cc3ccc(O)cc3)C(=O)O)NC(=O)[C@H](CCCCN)NC(=O)[C@@H]3CSSC[C@H](NC(=O)[C@H](CCCCN)NC(=O)[C@H](CCSC)NC(=O)[C@H](CC(=O)O)NC(=O)[C@H](CC(=O)O)NC(=O)[C@H](CCC(=O)O)NC(=O)[C@H](CO)NC(=O)[C@H](Cc4c[nH]c5ccccc45)NC(=O)[C@@H]4CCCN4C(=O)CNC(=O)[C@H](CC(N)=O)NC(=O)[C@@H](NC(=O)CNC(=O)[C@H](Cc4ccccc4)NC(=O)CN)CSSC[C@H](NC(=O)[C@H](Cc4ccc(O)cc4)NC(=O)CNC(=O)CNC(=O)[C@H](CCCCN)NC(=O)[C@H](Cc4ccc(O)cc4)NC(=O)CNC(=O)[C@H](CCCCN)NC1=O)C(=O)N[C@@H](C)C(=O)N[C@@H](CCCCN)C(=O)NCC(=O)NCC(=O)N[C@@H](Cc1ccccc1)C(=O)N[C@@H](CC(C)C)C(=O)N3)C(=O)N[C@@H](Cc1c[nH]cn1)C(=O)N[C@@H](CC(N)=O)C(=O)N[C@@H](Cc1c[nH]cn1)C(=O)N2 [PPI42, reference compound] (H-GFGCNGPWSEDDMKCHNHCKSIKGYKGGYCAKGGFLCKCY-OH; disulfide 4-30, 15-37, 19-39) | 8 (≈ 1.82 µM) | 2 (≈ 0.456 µM) | 2 (≈ 0.456 µM) | >64 | >64 | 8 (≈ 1.82 µM) | 4 (≈ 0.912 µM) | 0.5 (≈ 0.114 µM) | 4 (≈ 0.912 µM) | 16 (≈ 3.65 µM) | 4 (≈ 0.912 µM) | 8 (≈ 1.82 µM) | >64 | >64 | 8 (≈ 1.82 µM) | 8 (≈ 1.82 µM) | 0.5 (≈ 0.114 µM) | 4 (≈ 0.912 µM) | growth-promoting effects |  | hemolysis (mouse erythrocytes; 2560 µg/mL): 10%; hemolysis (mouse erythrocytes; up to 1280 µg/mL): minimal hemolysis
CC[C@H](C)[C@@H]1NC(=O)[C@H](CO)NC(=O)[C@H](CCCCN)NC(=O)[C@@H]2CSSC[C@@H](C(=O)N[C@@H](Cc3ccc(O)cc3)C(=O)O)NC(=O)[C@H](CCCCN)NC(=O)[C@@H]3CSSC[C@H](NC(=O)[C@H](CCCCN)NC(=O)[C@H](CCSC)NC(=O)[C@H](CC(=O)O)NC(=O)[C@H](CC(=O)O)NC(=O)[C@H](CCC(=O)O)NC(=O)[C@H](CC(N)=O)NC(=O)[C@H](Cc4c[nH]c5ccccc45)NC(=O)[C@@H]4CCCN4C(=O)CNC(=O)[C@H](CC(N)=O)NC(=O)[C@@H](NC(=O)CNC(=O)[C@H](Cc4ccccc4)NC(=O)CN)CSSC[C@H](NC(=O)[C@H](Cc4ccc(O)cc4)NC(=O)CNC(=O)CNC(=O)[C@H](CCCCN)NC(=O)[C@H](Cc4ccc(O)cc4)NC(=O)CNC(=O)[C@H](CCCCN)NC1=O)C(=O)N[C@@H](C)C(=O)N[C@@H](CCCCN)C(=O)NCC(=O)NCC(=O)N[C@@H](Cc1ccccc1)C(=O)N[C@@H](CC(C)C)C(=O)N3)C(=O)N[C@@H](Cc1c[nH]cn1)C(=O)N[C@@H](CC(N)=O)C(=O)N[C@@H](Cc1c[nH]cn1)C(=O)N2 [PPI45] (H-GFGCNGPWNEDDMKCHNHCKSIKGYKGGYCAKGGFLCKCY-OH; disulfide 4-30, 15-37, 19-39) | 16 (≈ 3.62 µM) | 4 (≈ 0.906 µM) | 16 (≈ 3.62 µM) | >64 | >64 | 4 (≈ 0.906 µM) | 4 (≈ 0.906 µM) | 0.5 (≈ 0.113 µM) | 1 (≈ 0.226 µM) | 16 (≈ 3.62 µM) | 4 (≈ 0.906 µM) | 16 (≈ 3.62 µM) | >64 | >64 | 4 (≈ 0.906 µM) | 4 (≈ 0.906 µM) | 0.5 (≈ 0.113 µM) | 4 (≈ 0.906 µM) | did not exhibit cytotoxicity | no hemolysis | 
CC[C@H](C)[C@@H]1NC(=O)[C@H](CO)NC(=O)[C@H](CCCCN)NC(=O)[C@@H]2CSSC[C@@H](C(=O)N[C@@H](Cc3ccc(O)cc3)C(=O)O)NC(=O)[C@H](CCCCN)NC(=O)[C@@H]3CSSC[C@H](NC(=O)[C@H](CCCNC(=N)N)NC(=O)[C@H](CC(C)C)NC(=O)[C@H](CC(=O)O)NC(=O)[C@H](CC(=O)O)NC(=O)[C@H](CCC(=O)O)NC(=O)[C@H](CO)NC(=O)[C@H](Cc4c[nH]c5ccccc45)NC(=O)[C@@H]4CCCN4C(=O)CNC(=O)[C@H](CC(N)=O)NC(=O)[C@@H](NC(=O)CNC(=O)[C@H](Cc4ccccc4)NC(=O)CN)CSSC[C@H](NC(=O)[C@H](Cc4ccc(O)cc4)NC(=O)CNC(=O)CNC(=O)[C@H](CCCCN)NC(=O)[C@H](Cc4ccc(O)cc4)NC(=O)CNC(=O)[C@H](CCCCN)NC1=O)C(=O)N[C@@H](C)C(=O)N[C@@H](CCCCN)C(=O)NCC(=O)NCC(=O)N[C@@H](Cc1ccccc1)C(=O)N[C@@H](CC(C)C)C(=O)N3)C(=O)N[C@@H](Cc1c[nH]cn1)C(=O)N[C@@H](CC(N)=O)C(=O)N[C@@H](Cc1c[nH]cn1)C(=O)N2 [PPI47] (H-GFGCNGPWSEDDLRCHNHCKSIKGYKGGYCAKGGFLCKCY-OH; disulfide 4-30, 15-37, 19-39) | 16 (≈ 3.64 µM) | 4 (≈ 0.909 µM) | 16 (≈ 3.64 µM) | >64 | >64 | 4 (≈ 0.909 µM) | 4 (≈ 0.909 µM) | 0.5 (≈ 0.114 µM) | 2 (≈ 0.455 µM) | 16 (≈ 3.64 µM) | 4 (≈ 0.909 µM) | 16 (≈ 3.64 µM) | >64 | >64 | 8 (≈ 1.82 µM) | 8 (≈ 1.82 µM) | 0.5 (≈ 0.114 µM) | 4 (≈ 0.909 µM) | did not exhibit cytotoxicity | no hemolysis | 
